Laboratory results published in US20240217954A1, “CRYSTAL FORM IV OF ORGANIC ACID SALTS OF MELANOCORTIN RECEPTOR AGONIST COMPOUND, AND PREPARATION METHOD THEREOF” (LG CHEM, LTD., priority 2021, published 2024).
Where two headings read alike, the source gives them in different places.

Experiment: Solubility assessment: visual, by final volume of water added until the sample is completely dissolved
Method: Solubility indicates the result of measurement based on the final volume of water added to a sample when it is visually confirmed that the sample is completely dissolved by adding water to the sample. The solubility of the actual sample may be higher than the measured solubility. Solubility was measured based on the final volume of water added to a sample when it was visually confirmed that the sample was completely dissolved by adding water to the sample.

[1] = in water, visual complete dissolution, actual solubility may be higher than measured

| SMILES | solubility [1] | solubility |
| --- | --- | --- |
| CC(O)C(=O)O.CC1CCC(N(C(=O)C(C)C)[C@H]2C[C@@H](C(=O)N3CCOCC3)N(C(=O)[C@@H]3CN(C(C)(C)C)C[C@H]3c3ccc(Cl)cc3)C2)CC1 (stereo partly drawn) [Example 1, N-((3S,5S)-1-((3S,4R)-1-(tert-butyl)-4-(4-chlorophenyl)pyrrolidine-3-carbonyl)-5-(morpholine-4-carbonyl)pyrrolidin-3-yl)-N-((1 s,4R)-4-methylcyclohexyl)isobutyramide lactate] | more than 24 mg/mL | – |
| CC(C)C(=O)N([C@H]1C[C@@H](C(=O)N2CCOCC2)N(C(=O)[C@@H]2CN(C(C)(C)C)C[C@H]2c2ccc(Cl)cc2)C1)[C@H]1CC[C@@H](C)CC1.O=S(=O)(O)c1ccccc1 [Example 2, N-((3S,5S)-1-((3S,4R)-1-(tert-butyl)-4-(4-chlorophenyl)pyrrolidine-3-carbonyl)-5-(morpholine-4-carbonyl)pyrrolidin-3-yl)-N-((1 s,4R)-4-methylcyclohexyl)isobutyramide benzene sulfonate] | more than 1 mg/mL | – |
| CC(C)C(=O)N([C@H]1C[C@@H](C(=O)N2CCOCC2)N(C(=O)[C@@H]2CN(C(C)(C)C)C[C@H]2c2ccc(Cl)cc2)C1)[C@H]1CC[C@@H](C)CC1.Cc1ccc(S(=O)(=O)O)cc1 [Example 3, N-((3S,5S)-1-((3S,4R)-1-(tert-butyl)-4-(4-chlorophenyl)pyrrolidine-3-carbonyl)-5-(morpholine-4-carbonyl)pyrrolidin-3-yl)-N-((1 s,4R)-4-methylcyclohexyl)isobutyramide toluene sulfonate] | – | more than 10 mg/mL |
